Active and inactive are the calls of the source. The rule behind the calls is not given here.
Columns and labels:
[1] = biological target: T1, Sphingosine 1-phosphate receptor 1 (Homo sapiens, UniProt P21453); assay: Agonist activity at S1P1 receptor assessed as induction of [35S]GTP-gamma-S binding; assay type: functional
Homo sapiens [2] = organism: Homo sapiens; assay: Selectivity for S1P1 receptor over S1P4 receptor
[3] = biological target: T2, Sphingosine 1-phosphate receptor 3 (Homo sapiens, UniProt Q99500); assay: Agonist activity at S1P3 receptor assessed as induction of [35S]GTP-gamma-S binding; assay type: functional
[4] = biological target: T3, Sphingosine 1-phosphate receptor 5 (Homo sapiens, UniProt Q9H228); assay: Agonist activity at S1P5 receptor assessed as induction of [35S]GTP-gamma-S binding; assay type: functional
Homo sapiens [5] = organism: Homo sapiens; assay: Selectivity for S1P1 receptor over S1P2 receptor
Homo sapiens [6] = organism: Homo sapiens; assay: Selectivity for S1P1 receptor over S1P5 receptor
[7] = Oral bioavailability in rat; assay type: ADME, organism-based; conditions: in vivo
Homo sapiens [8] = organism: Homo sapiens; assay: Selectivity for S1P1 receptor over S1P3 receptor
[9] = Half life in rat; assay type: ADME, organism-based; conditions: in vivo
Mus musculus = assay: Lowering of lymphocytes in mouse at 0.3 mg/kg, po; assay type: functional, organism-based; set-up: dose 0.3 mg/kg
[10] = biological target: T3, Sphingosine 1-phosphate receptor 5; assay: Inhibition of S1P5 receptor at 10 uM
[11] = biological target: T2, Sphingosine 1-phosphate receptor 3; assay: Inhibition of S1P3 receptor at 10 uM
[12] = biological target: T1, Sphingosine 1-phosphate receptor 1; assay: Inhibition of S1P1 receptor at 10 uM

T2 sequence (Q99500 whole entry): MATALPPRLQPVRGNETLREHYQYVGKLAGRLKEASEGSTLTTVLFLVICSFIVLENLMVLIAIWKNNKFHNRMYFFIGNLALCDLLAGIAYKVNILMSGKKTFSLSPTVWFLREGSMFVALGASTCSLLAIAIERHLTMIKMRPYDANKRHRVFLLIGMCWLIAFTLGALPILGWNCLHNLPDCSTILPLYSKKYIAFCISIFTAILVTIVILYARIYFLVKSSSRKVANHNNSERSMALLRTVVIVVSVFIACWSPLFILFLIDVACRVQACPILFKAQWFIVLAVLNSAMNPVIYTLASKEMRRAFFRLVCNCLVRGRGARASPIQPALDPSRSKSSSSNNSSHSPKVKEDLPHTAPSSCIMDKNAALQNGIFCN
T3 sequence (Q9H228 whole entry): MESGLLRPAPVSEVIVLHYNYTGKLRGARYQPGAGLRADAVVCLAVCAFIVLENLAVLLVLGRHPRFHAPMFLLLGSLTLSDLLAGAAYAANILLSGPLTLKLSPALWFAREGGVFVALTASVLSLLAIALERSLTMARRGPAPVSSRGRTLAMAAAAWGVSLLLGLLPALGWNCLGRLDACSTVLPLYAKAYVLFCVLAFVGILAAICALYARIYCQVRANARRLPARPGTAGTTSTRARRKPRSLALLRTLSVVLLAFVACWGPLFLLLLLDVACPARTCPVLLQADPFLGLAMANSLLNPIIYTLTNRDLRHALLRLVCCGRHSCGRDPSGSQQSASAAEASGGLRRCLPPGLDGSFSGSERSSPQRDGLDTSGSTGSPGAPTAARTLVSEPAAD
T1 sequence (P21453 whole entry): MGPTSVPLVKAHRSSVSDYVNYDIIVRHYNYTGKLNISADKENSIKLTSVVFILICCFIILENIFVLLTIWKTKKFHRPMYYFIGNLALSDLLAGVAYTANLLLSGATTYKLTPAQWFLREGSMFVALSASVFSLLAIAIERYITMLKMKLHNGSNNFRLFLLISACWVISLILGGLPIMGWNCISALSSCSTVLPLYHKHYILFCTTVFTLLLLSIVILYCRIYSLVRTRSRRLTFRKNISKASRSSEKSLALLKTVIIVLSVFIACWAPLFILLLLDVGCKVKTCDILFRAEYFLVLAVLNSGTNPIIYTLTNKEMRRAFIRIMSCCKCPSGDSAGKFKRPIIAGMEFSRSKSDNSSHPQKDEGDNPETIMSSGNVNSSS

Row | SMILES | EC50 [1] [nM] | Selectivity ratio (Homo sapiens [2]) | EC50 [3] [nM] | EC50 [4] [nM] | Selectivity ratio (Homo sapiens [5]) | Selectivity ratio (Homo sapiens [6]) | other results
1 | Cc1cc(CCC(=O)O)ccc1-c1cnc(-c2ccc(OC(C)C)c(C#N)c2)s1 | 14 | > 1000 | > 10000 | 200 | > 1000 |  | 
2 | Cc1cc(CCC(=O)O)ccc1-c1noc(-c2cnc(OC(C)C)c(Cl)c2)n1 | 0.73 | > 1000 | 950 | 950 | > 1000 |  | 
3 | Cc1cc(CCC(=O)O)ccc1-c1cc(-c2ccc(OC(C)C)c(C#N)c2)cs1 | 290 | > 1000 | > 10000 | 3200 | > 1000 |  | 
4 | Cc1cc(CCC(=O)O)ccc1-c1ccc(-c2ccc(OC(C)C)c(C#N)c2)s1 | 0.93 | > 1000 | > 10000 | 220 | > 1000 |  | 
5 | Cc1cc(CCC(=O)O)ccc1-c1nnc(-c2ccc(F)c(C#N)c2)s1 | 570 | > 1000 |  |  | > 1000 | 18 | 
6 | Cc1cc(CCC(=O)O)ccc1-c1nc(C)c(-c2ccc(OC(C)C)c(C#N)c2)s1 | > 3600 | > 1000 | > 10000 | > 10000 | > 1000 |  | 
7 | Cc1cc(CCC(=O)O)ccc1-c1ncc(-c2ccc(OC(C)C)c(C#N)c2)s1 | 0.18 | > 1000 | > 10000 | 120 | > 1000 | > 600 | bioavailability [7]: 39%; Selectivity ratio (Homo sapiens [8]): > 10000; half-life [9]: < 1 h; Activity (Mus musculus): Active
8 | Cc1cc(CCC(=O)O)ccc1-c1nnc(-c2ccc(OCCC(F)(F)F)c(C#N)c2)s1 | 7.7 | > 1000 |  |  | > 1000 | 30 | 
9 | Cc1cc(CCC(=O)O)ccc1-c1ccc(-c2ccc(OC(C)C)c(C#N)c2)n1C | > 10000 | > 1000 | > 10000 | > 10000 | > 1000 |  | 
10 | Cc1cc(CCC(=O)O)ccc1-c1nnc(-c2ccc(OCCF)c(C#N)c2)s1 | 9.5 | > 1000 |  |  | > 1000 | > 100 | 
11 | Cc1cc(CCC(=O)O)ccc1-c1coc(-c2cnc(OC(C)C)c(Cl)c2)n1 | 1000 | > 1000 |  |  | > 1000 |  | inhibition [10]: 0%; inhibition [11]: 8%
12 | Cc1cc(CCC(=O)O)ccc1-c1ccc(-c2ccc(OC(C)C)c(C#N)c2)o1 | > 10000 | > 1000 | > 10000 | > 10000 | > 1000 |  | 
13 | Cc1cc(CCC(=O)O)ccc1-c1nnn(-c2ccc(OC(C)C)c(C#N)c2)n1 | 1.6 | > 1000 | > 10000 | 43 | > 1000 |  | 
14 | Cc1cc(CCC(=O)O)ccc1-c1csc(-c2ccc(OC(C)C)c(C#N)c2)c1 | 1200 | > 1000 | > 10000 | 3200 | > 1000 |  | 
15 | Cc1cc(CCC(=O)O)ccc1-n1nnc(-c2ccc(OC(C)C)c(C#N)c2)n1 | 0.98 | > 1000 | > 10000 | 150 | > 1000 |  | 
16 | Cc1cc(CCC(=O)O)ccc1-c1nc(-c2ccc(OC(C)C)c(C#N)c2)n[nH]1 |  | > 1000 |  |  | > 1000 |  | 
17 | Cc1cc(CCC(=O)O)ccc1-c1nnc(-c2cnc(OC(C)C)c(Cl)c2)o1 | 19 | > 1000 |  |  | > 1000 |  | inhibition [10]: 44%; inhibition [11]: 82%
18 | CCC(C)Oc1ccc(-c2nnc(-c3ccc(CCC(=O)O)cc3C)s2)cc1C#N (stereo not drawn) | 0.28 | > 1000 |  |  | > 1000 | 120 | 
19 | COc1ccc(-c2nnc(-c3ccc(CCC(=O)O)cc3C)s2)cc1C#N | 97 | > 1000 |  |  | > 1000 | > 100 | 
20 | Cc1cc(CCC(=O)O)ccc1-c1nnc(-c2ccc(OCC#N)c(C#N)c2)s1 | 45 | > 1000 |  |  | > 1000 | 220 | 
21 | Cc1cc(CCC(=O)O)ccc1-c1nnc(-c2ccc(OCC(F)F)c(C#N)c2)s1 | 1.1 | > 1000 |  |  | > 1000 | 230 | 
22 | Cc1cc(CCC(=O)O)ccc1-c1nnc(-c2ccc(OCC(F)(F)F)c(C#N)c2)s1 | 0.6 | > 1000 |  |  | > 1000 | 400 | 

Row | SMILES | EC50 [1] [nM] | Selectivity ratio (Homo sapiens [2]) | EC50 [3] [nM] | EC50 [4] [nM] | Selectivity ratio (Homo sapiens [5]) | Selectivity ratio (Homo sapiens [6]) | other results
23 | CCCOc1ccc(-c2nnc(-c3ccc(CCC(=O)O)cc3C)s2)cc1C#N | 3.4 | > 1000 |  |  | > 1000 | 110 | 
24 | Cc1cc(CCC(=O)O)ccc1-c1nnc(-c2cccc(C#N)c2)s1 | > 1000 | > 1000 |  |  | > 1000 |  | 
25 | Cc1cc(CCC(=O)O)ccc1-c1noc(-c2ccc(OC(C)C)c(Cl)c2)n1 | 0.15 | > 1000 | 940 | 73 | > 1000 |  | 
26 | Cc1cc(CCC(=O)O)ccc1-c1nnc(-c2ccc(OC(C)C)c(C#N)c2)[nH]1 | 380 |  | > 10000 | > 10000 |  |  | 
27 | Cc1cc(CCC(=O)O)ccc1-c1nnc(-c2ccc(OC(C)C)c(C#N)c2)s1 | 0.2 | > 1000 |  |  | > 1000 | 210 | 
28 | CCOc1ccc(-c2nnc(-c3ccc(CCC(=O)O)cc3C)s2)cc1C#N | 2.1 | > 1000 |  |  | > 1000 | 480 | 
29 | Cc1cc(CCC(=O)O)ccc1-c1nnc(-c2ccc(OCC(=O)O)c(C#N)c2)s1 | 360 | > 1000 |  |  | > 1000 | 28 | 
30 | Cc1cc(CCC(=O)O)ccc1-c1nnc(-c2ccc(OC(C(F)(F)F)C(F)(F)F)c(C#N)c2)s1 | 38 | > 1000 |  |  | > 1000 | 2 | 
31 | Cc1cc(CCC(=O)O)ccc1-c1nnc(-c2ccc(OC(C)C)c(C#N)c2)o1 | 1.1 | > 1000 | > 10000 | 460 | > 1000 |  | 
32 | Cc1cc(CCC(=O)O)ccc1-c1nnc(-c2ccc(CC(C)C)c(C#N)c2)s1 | 0.16 | > 1000 |  |  | > 1000 | 320 | 
33 | Cc1cc(CCC(=O)O)ccc1-c1nnc(-c2ccc(OC(CF)CF)c(C#N)c2)s1 | 0.23 | > 1000 |  |  | > 1000 | 390 | 
34 | Cc1cc(CCC(=O)O)ccc1-c1nnc(-c2ccc(OC3CCC3)c(C#N)c2)s1 | 0.79 | > 1000 |  |  | > 1000 | 170 | 
35 | Cc1cc(CCC(=O)O)ccc1-c1ncc(-c2ccc(OC(C)C)c(C#N)c2)o1 | 5.1 | > 1000 | > 10000 | > 10000 | > 1000 |  | 
36 | Cc1cc(CCC(=O)O)ccc1-c1nnc(-c2ccc(OC(C)C)c(C#N)c2)n1C | > 10000 | > 1000 | > 10000 | > 10000 | > 1000 |  | 
37 | Cc1cc(CCC(=O)O)ccc1-c1nnc(-c2cnc(OC(C)C)c(Cl)c2)s1 | 2.1 | > 1000 |  | 1300 | > 1000 |  | inhibition [11]: 36%
38 | CC(=O)Oc1ccc(-c2nnc(-c3ccc(CCC(=O)O)cc3C)s2)cc1C#N | 94 | > 1000 |  |  | > 1000 | 110 | 
39 | Cc1cc(CCC(=O)O)ccc1-c1nnc(-c2ccc(-c3cccs3)c(C#N)c2)s1 | 1.9 | > 1000 |  |  | > 1000 | 110 | 
40 | Cc1cc(CCC(=O)O)ccc1-c1nnc(-c2ccc(OCC(C)C)c(C#N)c2)s1 | 2.8 | > 1000 |  |  | > 1000 | 200 | 
41 | Cc1cc(CCC(=O)O)ccc1-c1csc(-c2cnc(OC(C)C)c(Cl)c2)n1 |  | > 1000 |  |  | > 1000 |  | inhibition [10]: 6%; inhibition [12]: 30%; inhibition [11]: 0%
42 | Cc1cc(CCC(=O)O)ccc1-c1noc(-c2ccc(OC(C)C)c(C#N)c2)n1 | 0.1 | > 1000 | 110 | 13 | > 1000 |  | 
43 | Cc1cc(CCC(=O)O)ccc1-c1nnc(-c2ccc(OCC3CC3)c(C#N)c2)s1 | 0.61 | > 1000 |  |  | > 1000 | 230 | 

From ChEMBL document CHEMBL1138961, “Highly selective and potent agonists of sphingosine-1-phosphate 1 (S1P1) receptor” (Bioorg Med Chem Lett, 2006)
